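These data come from cells grown in 96-well plates and exposed to compound for 48 hours at five concentrations. TGI: total growth inhibition.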
Legend:
Test in all cases: NCI tumour cell line growth inhibition, 48 h
786-0 renal = system: 786-0 renal
A498 renal = system: A498 renal
A549 NSCLC = system: A549 NSCLC
ACHN renal = system: ACHN renal
BT-549 breast = system: BT-549 breast
CAKI-1 renal = system: CAKI-1 renal
CCRF-CEM leukemia = system: CCRF-CEM leukemia
COLO 205 colon = system: COLO 205 colon
DLD-1 colon = system: DLD-1 colon
DMS 273 small cell lung = system: DMS 273 small cell lung
DU-145 prostate = system: DU-145 prostate
EKVX NSCLC = system: EKVX NSCLC
HCC-2998 colon = system: HCC-2998 colon
HCT-116 colon = system: HCT-116 colon
HCT-15 colon = system: HCT-15 colon
HL-60(TB) leukemia = system: HL-60(TB) leukemia
HOP-18 NSCLC = system: HOP-18 NSCLC
HOP-62 NSCLC = system: HOP-62 NSCLC
HOP-92 NSCLC = system: HOP-92 NSCLC
HS 578T breast = system: HS 578T breast
HT29 colon = system: HT29 colon
IGROV1 ovarian = system: IGROV1 ovarian
K-562 leukemia = system: K-562 leukemia
KM12 colon = system: KM12 colon
KM20L2 colon = system: KM20L2 colon
LOX IMVI melanoma = system: LOX IMVI melanoma
M14 melanoma = system: M14 melanoma
M19-MEL melanoma = system: M19-MEL melanoma
MALME-3M melanoma = system: MALME-3M melanoma
MCF7 breast = system: MCF7 breast
MDA-MB-231 breast = system: MDA-MB-231 breast
MDA-MB-435 = system: MDA-MB-435
MDA-N = system: MDA-N
MOLT-4 leukemia = system: MOLT-4 leukemia
NCI-H226 lung = system: NCI-H226 lung
NCI-H23 lung = system: NCI-H23 lung
NCI-H460 lung = system: NCI-H460 lung
NCI-H522 lung = system: NCI-H522 lung
NCI/ADR-RES ovarian = system: NCI/ADR-RES ovarian
OVCAR-3 ovarian = system: OVCAR-3 ovarian
OVCAR-4 ovarian = system: OVCAR-4 ovarian
OVCAR-5 ovarian = system: OVCAR-5 ovarian
OVCAR-8 ovarian = system: OVCAR-8 ovarian
P388 leukemia = system: P388 leukemia
P388/ADR leukemia = system: P388/ADR leukemia
PC-3 prostate = system: PC-3 prostate
RPMI-8226 leukemia = system: RPMI-8226 leukemia
RXF 393 renal = system: RXF 393 renal
SF-268 CNS = system: SF-268 CNS
SF-295 CNS = system: SF-295 CNS
SF-539 CNS = system: SF-539 CNS
SK-MEL-2 melanoma = system: SK-MEL-2 melanoma
SK-MEL-28 melanoma = system: SK-MEL-28 melanoma
SK-MEL-5 melanoma = system: SK-MEL-5 melanoma
SK-OV-3 ovarian = system: SK-OV-3 ovarian
SN12C renal = system: SN12C renal
SN12K1 renal = system: SN12K1 renal
SNB-19 CNS = system: SNB-19 CNS
SNB-75 CNS = system: SNB-75 CNS
SNB-78 CNS = system: SNB-78 CNS
SR leukemia = system: SR leukemia
SW-620 colon = system: SW-620 colon
T-47D breast = system: T-47D breast
TK-10 renal = system: TK-10 renal
U251 CNS = system: U251 CNS
UACC-257 melanoma = system: UACC-257 melanoma
UACC-62 melanoma = system: UACC-62 melanoma
UO-31 renal = system: UO-31 renal
XF 498 CNS = system: XF 498 CNS

Molecule `COC12C(COC(N)=O)C3=C(C(=O)C(C)=C(N)C3=O)N1CC1C2N1C` (centres undefined) has a TGI (786-0 renal) of 68.5 µM, a TGI (A498 renal) of 21.2 µM and a TGI (A549 NSCLC) of 24.2 µM. It also gave a TGI (ACHN renal) of 25.3 µM, a TGI (BT-549 breast) of 28.3 µM and a TGI (CAKI-1 renal) of 22 µM. For the same molecule, the TGI (CCRF-CEM leukemia) was 51.7 µM, the TGI (COLO 205 colon) was 21.6 µM and the TGI (DLD-1 colon) was 57.8 µM. It also gave a TGI (DMS 273 small cell lung) of 5.81 µM, a TGI (DU-145 prostate) of 15.3 µM and a TGI (EKVX NSCLC) of 60.3 µM. The TGI (HCC-2998 colon) was 16.7 µM, the TGI (HCT-116 colon) was 32.1 µM and the TGI (HCT-15 colon) was 55.1 µM. For the same molecule, the TGI (HL-60(TB) leukemia) was 8.66 µM, the TGI (HOP-18 NSCLC) was 82.5 µM and the TGI (HOP-62 NSCLC) was 16.8 µM. The TGI (HOP-92 NSCLC) was 36.4 µM, the TGI (HS 578T breast) was 75.7 µM and the TGI (HT29 colon) was 43.2 µM. It also gave a TGI (IGROV1 ovarian) of 28.6 µM, a TGI (K-562 leukemia) of 179 µM and a TGI (KM12 colon) of 43.7 µM. The TGI (KM20L2 colon) was 52.3 µM, the TGI (LOX IMVI melanoma) was 20.2 µM and the TGI (M14 melanoma) was 22.7 µM. It also gave a TGI (M19-MEL melanoma) of 24.7 µM, a TGI (MALME-3M melanoma) of 18.7 µM and a TGI (MCF7 breast) of 22.3 µM. The TGI (MDA-MB-231 breast) was 115 µM, the TGI (MDA-MB-435) was 28.1 µM and the TGI (MDA-N) was 35.3 µM. For the same molecule, the TGI (MOLT-4 leukemia) was 18.6 µM, the TGI (NCI-H226 lung) was 38.8 µM and the TGI (NCI-H23 lung) was 17.6 µM. For the same molecule, the TGI (NCI-H460 lung) was 1860 nM, the TGI (NCI-H522 lung) was 25.4 µM and the TGI (NCI/ADR-RES ovarian) was 268 µM. It also gave a TGI (OVCAR-3 ovarian) of 35.4 µM, a TGI (OVCAR-4 ovarian) of 28.1 µM and a TGI (OVCAR-5 ovarian) of 63.1 µM. The TGI (OVCAR-8 ovarian) was 53.1 µM, the TGI (P388 leukemia) was 75.2 µM and the TGI (P388/ADR leukemia) was 263 µM. For the same molecule, the TGI (PC-3 prostate) was 61.6 µM, the TGI (RPMI-8226 leukemia) was over 85.5 µM and the TGI (RXF 393 renal) was 28.7 µM. The TGI (SF-268 CNS) was 47 µM, the TGI (SF-295 CNS) was 18.1 µM and the TGI (SF-539 CNS) was 46.7 µM. For the same molecule, the TGI (SK-MEL-2 melanoma) was 31.2 µM, the TGI (SK-MEL-28 melanoma) was 57.4 µM and the TGI (SK-MEL-5 melanoma) was 9.19 µM. For the same molecule, the TGI (SK-OV-3 ovarian) was 49 µM, the TGI (SN12C renal) was 29.5 µM and the TGI (SN12K1 renal) was 19.9 µM. It also gave a TGI (SNB-19 CNS) of 62.5 µM, a TGI (SNB-75 CNS) of 11.8 µM and a TGI (SNB-78 CNS) of 51.1 µM. The TGI (SR leukemia) was 56.5 µM, the TGI (SW-620 colon) was 35.8 µM and the TGI (T-47D breast) was 182 µM. The TGI (TK-10 renal) was 69.5 µM, the TGI (U251 CNS) was 22.6 µM and the TGI (UACC-257 melanoma) was 35.6 µM. The TGI (UACC-62 melanoma) was 11.1 µM, the TGI (UO-31 renal) was 32.6 µM and the TGI (XF 498 CNS) was 21 µM.

From PubChem BioAssay (NCI)
